Experiments:
[1] = target: PIM (PIM-1, PIM-2, and/or PIM-3); test: PIM-1, PIM-2 and PIM-3 inhibition, biochemical chemiluminescence assays (Kinase Glo, IC50 determination); settings: Table 1 activity class; PIM refers to PIM-1, PIM-2, and/or PIM-3; read-out: PIM IC50 (Activity B)
CK2 = CK2 (Homo sapiens, UniProt P68400); test: CK2 inhibition, biochemical chemiluminescence holoenzyme assay (Kinase Glo, IC50 determination); settings: Table 1 activity class; symbol given only if active; read-out: CK2 IC50 (Activity C)
Summary of the method: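 Holoenzyme CK2 assay; compounds pre-incubated with substrate and enzyme, then reacted 150 min at 24-27° C. Remaining ATP measured as luminescence with Kinase Glo, and IC50 derived from the signal.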

Chain of CK2 (P68400 whole entry): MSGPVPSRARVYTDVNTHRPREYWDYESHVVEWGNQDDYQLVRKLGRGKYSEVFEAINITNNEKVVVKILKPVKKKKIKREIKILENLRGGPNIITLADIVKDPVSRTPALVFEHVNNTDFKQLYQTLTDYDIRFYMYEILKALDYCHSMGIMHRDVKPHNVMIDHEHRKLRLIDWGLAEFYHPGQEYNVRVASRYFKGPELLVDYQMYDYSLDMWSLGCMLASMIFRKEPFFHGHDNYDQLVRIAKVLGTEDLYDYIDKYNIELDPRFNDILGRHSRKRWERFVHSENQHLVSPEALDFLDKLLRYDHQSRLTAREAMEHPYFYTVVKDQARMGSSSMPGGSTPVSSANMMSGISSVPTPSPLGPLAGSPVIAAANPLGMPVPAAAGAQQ
Chain of CK2 (P67870 whole entry partner): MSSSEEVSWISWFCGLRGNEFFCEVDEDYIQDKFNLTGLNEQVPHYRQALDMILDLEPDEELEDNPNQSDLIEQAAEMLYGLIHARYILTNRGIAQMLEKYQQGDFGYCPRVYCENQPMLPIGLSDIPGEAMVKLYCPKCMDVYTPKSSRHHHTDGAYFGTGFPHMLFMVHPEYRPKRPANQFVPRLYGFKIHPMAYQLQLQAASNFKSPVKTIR

| Compound | IC50 [1] | IC50 (CK2) |
| --- | --- | --- |
| O=C(Cc1ccccc1)N1CCC(c2nc3c(oc4ccc(Br)cc43)c(=O)[nH]2)CC1 [Compound 237, 8-bromo-2-[1-(phenylacetyl)piperidin-4-yl][1]benzofuro[3,2-d]pyrimidin-4(3H)-one] | < 10 µM | < 10 µM |
| O=c1[nH]c(CN2CCN(c3cccnc3)CC2)nc2c1oc1ccc(Br)cc12 [Compound 240, 8-bromo-2-[(4-pyridin-3-ylpiperazin-1-yl)methyl][1]benzofuro[3,2-d]pyrimidin-4(3H)-one] | < 10 µM | < 10 µM |
| Nc1ncc(Cl)c(-c2nc3c(oc4ccc(Br)cc43)c(=O)[nH]2)n1 [Compound 243, 2-(2-amino-5-chloropyrimidin-4-yl)-8-bromo[1]benzofuro[3,2-d]pyrimidin-4(3H)-one] | < 10 µM | < 10 µM |
| CN1CCC(Cc2nc3c(oc4ccc(Br)cc43)c(=O)[nH]2)CC1 [Compound 244, 8-bromo-2-[(1-methylpiperidin-4-yl)methyl][1]benzofuro[3,2-d]pyrimidin-4(3H)-one] | < 10 µM | < 10 µM |
| CCN(CC)CC(=O)N1CCN(c2nc3c(oc4ccc(Br)cc43)c(=O)[nH]2)CC1 [Compound 245, 8-bromo-2-[4-(N,N-diethylglycyl)piperazin-1-yl][1]benzofuro[3,2-d]pyrimidin-4(3H)-one] | < 10 µM | < 10 µM |
| CN(C)CCCN1CCN(c2nc3c(oc4ccc(Br)cc43)c(=O)[nH]2)CC1 [Compound 246, 8-bromo-2-{4-[3-(dimethylamino)propyl]piperazin-1-yl}[1]benzofuro[3,2-d]pyrimidin-4(3H)-one] | < 10 µM | < 10 µM |
| O=c1[nH]c(CN2CCN(CCO)CC2)nc2c1oc1ccc(Br)cc12 [Compound 247, 8-bromo-2-{[4-(2-hydroxyethyl)piperazin-1-yl]methyl}[1]benzofuro[3,2-d]pyrimidin-4(3H)-one] | < 10 µM | < 10 µM |
| O=C(Nc1ccc(-c2nc3c(oc4ccc(Br)cc43)c(=O)[nH]2)c(Cl)c1)c1ccccc1 [Compound 249, N-[4-(8-bromo-4-oxo-3,4-dihydro[1]benzofuro[3,2-d]pyrimidin-2-yl)-3-chlorophenyl]benzamide] | < 10 µM | < 10 µM |
| O=C(Nc1ccc(-c2nc3c(oc4ccc(Br)cc43)c(=O)[nH]2)c(Cl)c1)C1CCCCC1 [Compound 250, N-[4-(8-bromo-4-oxo-3,4-dihydro[1]benzofuro[3,2-d]pyrimidin-2-yl)-3-chlorophenyl]cyclohexanecarboxamide] | < 10 µM | < 10 µM |
| O=C(Nc1ccc(-c2nc3c(oc4ccc(Br)cc43)c(=O)[nH]2)c(Cl)c1)C1CCCC1 [Compound 251, N-[4-(8-bromo-4-oxo-3,4-dihydro[1]benzofuro[3,2-d]pyrimidin-2-yl)-3-chlorophenyl]cyclopentanecarboxamide] | < 10 µM | < 10 µM |
| O=c1[nH]c(CN2CCC(N3CCOCC3)CC2)nc2c1oc1ccc(Br)cc12 [Compound 257, 8-bromo-2-[(4-morpholin-4-ylpiperidin-1-yl)methyl][1]benzofuro[3,2-d]pyrimidin-4(3H)-one] | < 10 µM | < 10 µM |
| O=C(C1CCN(Cc2nc3c(oc4ccc(Br)cc43)c(=O)[nH]2)C1)N1CCOCC1 (stereo not drawn) [Compound 267, 8-bromo-2-{[3-(morpholin-4-ylcarbonyl)pyrrolidin-1-yl]methyl}[1]benzofuro[3,2-d]pyrimidin-4(3H)-one] | < 10 µM | < 10 µM |
| O=C(C1CCN(Cc2nc3c(oc4ccc(Br)cc43)c(=O)[nH]2)C1)N1CCC(O)CC1 (stereo not drawn) [Compound 272, 8-bromo-2-({3-[(4-hydroxypiperidin-1-yl)carbonyl]pyrrolidin-1-yl}methyl)[1]benzofuro[3,2-d]pyrimidin-4(3H)-one] | < 10 µM | < 10 µM |
| Cc1cc(C(=O)Nc2ccc(-c3nc4c(oc5ccc(Br)cc54)c(=O)[nH]3)c(Cl)c2)cc(Cl)n1 [Compound 274, N-[4-(8-bromo-4-oxo-3,4-dihydro[1]benzofuro[3,2-d]pyrimidin-2-yl)-3-chlorophenyl]-2-chloro-6-methylpyridine-4-carboxamide] | < 10 µM | < 10 µM |
| O=C(Nc1ccc(-c2nc3c(oc4ccc(Br)cc43)c(=O)[nH]2)c(Cl)c1)c1ccc(Cl)cc1 [Compound 279, N-[4-(8-bromo-4-oxo-3,4-dihydro[1]benzofuro[3,2-d]pyrimidin-2-yl)-3-chlorophenyl]-4-chlorobenzamide] | < 10 µM | < 10 µM |
| O=C(Nc1ccc(-c2nc3c(oc4ccc(Br)cc43)c(=O)[nH]2)c(Cl)c1)c1cccc(Cl)c1 [Compound 280, N-[4-(8-bromo-4-oxo-3,4-dihydro[1]benzofuro[3,2-d]pyrimidin-2-yl)-3-chlorophenyl]-3-chlorobenzamide] | < 10 µM | < 10 µM |
| C[C@H](c1ccccc1)N1C[C@H](c2nc3c(oc4ccc(Br)cc43)c(=O)[nH]2)CC1=O [Compound 282, 8-bromo-2-{(3R)-5-oxo-1-[(1R)-1-phenylethyl]pyrrolidin-3-yl}[1]benzofuro[3,2-d]pyrimidin-4(3H)-one] | < 10 µM | < 10 µM |
| Nc1cc(C(=O)Nc2ccc(-c3nc4c(oc5ccc(Br)cc54)c(=O)[nH]3)c(Cl)c2)ccn1 [Compound 284, 2-amino-N-[4-(8-bromo-4-oxo-3,4-dihydro[1]benzofuro[3,2-d]pyrimidin-2-yl)-3-chlorophenyl]pyridine-4-carboxamide] | < 10 µM | < 10 µM |

Second part, the molecule after the results:

| IC50 [1] | IC50 (CK2) | Compound |
| --- | --- | --- |
| < 10 µM | < 10 µM | O=c1[nH]c(CN2CCC(c3ccccc3)CC2)nc2c1oc1ccc(Br)cc12 [Compound 238, 8-bromo-2-[(4-phenylpiperidin-1-yl)methyl][1]benzofuro[3,2-d]pyrimidin-4(3H)-one] |
| < 10 µM | < 10 µM | O=c1[nH]c(CNCc2ccccc2)nc2c1oc1ccc(Br)cc12 [Compound 239, 8-bromo-2-{[(phenylmethyl)amino]methyl}[1]benzofuro[3,2-d]pyrimidin-4(3H)-one] |
| < 10 µM | < 10 µM | O=c1[nH]c(CNC2CCc3ccccc32)nc2c1oc1ccc(Br)cc12 (stereo not drawn) [Compound 241, 8-bromo-2-[(2,3-dihydro-1H-inden-1-ylamino)methyl][1]benzofuro[3,2-d]pyrimidin-4(3H)-one] |
| < 10 µM | < 10 µM | O=c1[nH]c(CN2CCC(Cc3ccccc3)CC2)nc2c1oc1ccc(Br)cc12 [Compound 253, 8-bromo-2-{[4-(phenylmethyl)piperidin-1-yl]methyl}[1]benzofuro[3,2-d]pyrimidin-4(3H)-one] |
| < 10 µM | < 10 µM | O=c1[nH]c(CNCc2ccccn2)nc2c1oc1ccc(Br)cc12 [Compound 254, 8-bromo-2-{[(pyridin-2-ylmethyl)amino]methyl}[1]benzofuro[3,2-d]pyrimidin-4(3H)-one] |
| < 10 µM | < 10 µM | COc1cccc(CNCc2nc3c(oc4ccc(Br)cc43)c(=O)[nH]2)c1 [Compound 255, 8-bromo-2-[({[3-(methyloxy)phenyl]methyl}amino)methyl][1]benzofuro[3,2-d]pyrimidin-4(3H)-one] |
| < 10 µM | < 10 µM | O=c1[nH]c(CNCc2cccc(Cl)c2)nc2c1oc1ccc(Br)cc12 [Compound 256, 8-bromo-2-({[(3-chlorophenyl)methyl]amino}methyl)[1]benzofuro[3,2-d]pyrimidin-4(3H)-one] |
| < 10 µM | < 10 µM | O=c1[nH]c(CNCc2ccco2)nc2c1oc1ccc(Br)cc12 [Compound 258, 8-bromo-2-{[(furan-2-ylmethyl)amino]methyl}[1]benzofuro[3,2-d]pyrimidin-4(3H)-one] |
| < 10 µM | < 10 µM | O=c1[nH]c(CN2CCN(c3ccccc3)CC2)nc2c1oc1ccc(Br)cc12 [Compound 260, 8-bromo-2-[(4-phenylpiperazin-1-yl)methyl][1]benzofuro[3,2-d]pyrimidin-4(3H)-one] |
| < 10 µM | < 10 µM | COc1ccc(CNCc2nc3c(oc4ccc(Br)cc43)c(=O)[nH]2)cc1 [Compound 261, 8-bromo-2-[({[4-(methyloxy)phenyl]methyl}amino)methyl][1]benzofuro[3,2-d]pyrimidin-4(3H)-one] |
| < 10 µM | < 10 µM | O=c1[nH]c(CNC2Cc3ccccc3C2)nc2c1oc1ccc(Br)cc12 [Compound 263, 8-bromo-2-[(2,3-dihydro-1H-inden-2-ylamino)methyl][1]benzofuro[3,2-d]pyrimidin-4(3H)-one] |
| < 10 µM | < 10 µM | COc1ccccc1CNCc1nc2c(oc3ccc(Br)cc32)c(=O)[nH]1 [Compound 268, 8-bromo-2-[({[2-(methyloxy)phenyl]methyl}amino)methyl][1]benzofuro[3,2-d]pyrimidin-4(3H)-one] |
| < 10 µM | < 10 µM | O=C(NCc1ccc(Cl)cc1)C1CCN(Cc2nc3c(oc4ccc(Br)cc43)c(=O)[nH]2)C1 (stereo not drawn) [Compound 271, 1-[(8-bromo-4-oxo-3,4-dihydro[1]benzofuro[3,2-d]pyrimidin-2-yl)methyl]-N-[(4-chlorophenyl)methyl]pyrrolidine-3-carboxamide] |
| < 10 µM | < 10 µM | COc1cccc(C(=O)Nc2ccc(-c3nc4c(oc5ccc(Br)cc54)c(=O)[nH]3)c(Cl)c2)c1 [Compound 281, N-[4-(8-bromo-4-oxo-3,4-dihydro[1]benzofuro[3,2-d]pyrimidin-2-yl)-3-chlorophenyl]-3-(methyloxy)benzamide] |
| < 10 µM | < 10 µM | COc1ccc(C(=O)Nc2ccc(-c3nc4c(oc5ccc(Br)cc54)c(=O)[nH]3)c(Cl)c2)cc1 [Compound 285, N-[4-(8-bromo-4-oxo-3,4-dihydro[1]benzofuro[3,2-d]pyrimidin-2-yl)-3-chlorophenyl]-4-(methyloxy)benzamide] |
